Consider 24 molecules from patent publication US7115642B2, “Substituted diphenyl isoxazoles, pyrazoles and oxadiazoles useful for treating HCV infection” (priority 2003, dated 2006).

This experiment concerns HCV replicon (5-2 Luc replicon-comprising cells). Description: HCV replicon assay (luciferase). Format: cell-based, Hepatitis C virus. The settings on record: 5-2 Luc replicon cells, luciferase readout, read-out: Replicon IC50. The source says: In one embodiment, the inhibitory activity of the compounds can be confirmed in a replicon assay that assesses the ability of a test compound to block or inhibit HCV replication in replicon cells. One example of a suitable replicon assay is the liver cell-line Huh 7-based replicon assay described in Lohmann et al., 1999, Science 285:110–113. A specific example of this replicon assay which utilizes luciferase translation is provided in the Examples Section. In one embodiment of this assay, the amount of test compound that yields a 50% reduction in translation as compared to a control cell (IC50) may be determined.
The inhibitory activity of certain exemplary compounds of the invention was confirmed using an HCV replicon assay. The HCV replicon can include such features as the HCV 5′ untranslated region including the HCV IRES, the HCV 3′ untranslated region, selected HCV genes encoding HCV polypeptides, selectable markers, and a reporter gene such as luciferase, GFP, etc. In the assay, actively dividing 5-2 Luc replicon-comprising cells (obtained from Ralf Bartenschlager; see Lohmann et al., 1999, Science 285:110–113) were seeded at a density of between about 5,000 and 7,500 cells/well onto 96 well plates (about 90 μl of cells per well) and incubated at 37° C. and 5% CO2 for 24 hours. Then, the test compound (in a volume of about 10 μl) was added to the wells at various concentrations and the cells were incubated for an additional 24 hours before luciferase assay. Briefly, the Bright-Glo reagent was diluted 1:1 with PBS and 100 μl of diluted reagent was added to each well. After 5 min of incubation at room temperature, luciferin emission was quantified with a luminometer. In this assay, the amount of test compound that yielded a 50% reduction in luciferase activity (IC50) was determined.
In TABLE 1, a value of “+” indicates an IC50 of 10 μM or less in the specified assay; a value of “−” indicates an IC50 of greater than 10 μM in the specified assay.
On the technique in general: Replicon systems follow genome replication, usually without infectious particles.

A word on the IC50: it is the concentration that inhibits the measured activity by half.

Read-outs that look alike come from different tables or passages of the source. A value given as a limit tells only on which side of the number the result lay.

Regarding `CCNC(=O)N1CCC(Oc2cccc(Cl)c2-c2cc(-c3cccc(NC(=O)C(Cl)Cl)c3)on2)CC1` [Compound 578], the IC50 was under 10 µM.
Regarding `Cc1cc(OCCN2CCOCC2)cc(C)c1-c1cc(-c2cccc(NC(=O)C(Cl)Cl)c2)on1` [Compound 23, 2,2-Dichloro-N-[3-[3-[2,6-dimethyl-4-(N-morpholino-2-ethyleneoxy)phenyl]-5-isoxazolyl]phenyl]Acetamide], the IC50 is under 10 µM.
Same read-out and setting: the value for `CS(=O)(=O)c1cccc(F)c1-c1cc(-c2cccc(NC(=O)C(Cl)Cl)c2)on1` [Compound 153, 2,2-Dichloro-N-[3-[3-(2-fluoro-6-methylsulfonyl)phenyl-5-isoxazolyl]phenyl]Acetamide] was over 10 µM; that for `[N-]=[N+]=Nc1cccc(Cl)c1-c1cc(-c2cccc(NC(=O)C(Cl)Cl)c2)on1` [Compound 512] was under 10 µM.
The same measure, in the same setting: the figure for `O=C(Nc1cc(-c2cc(-c3c(Cl)cccc3Cl)no2)ccc1N1CCOCC1)C(Cl)Cl` [Compound 169] is over 10 µM.
The same measure, in the same setting: the value for `CS(=O)(=O)N1CCN(c2cccc(Cl)c2-c2cc(-c3cccc(NC(=O)C(Cl)Cl)c3)on2)CC1` [Compound 529] was under 10 µM; that for `O=C(Nc1cccc(-c2cc(-c3c(Cl)cccc3N3CCN(c4ccccn4)CC3)no2)c1)C(Cl)Cl` [Compound 501] was under 10 µM; that for `CC(C)N1CCN(c2cccc(Cl)c2-c2cc(-c3cccc(NC(=O)C(Cl)Cl)c3)on2)CC1` [Compound 632] was under 10 µM.
As for `CN(Cc1cccnc1)c1cccc(Cl)c1-c1cc(-c2cccc(NC(=O)C(Cl)Cl)c2)on1` [Compound 635], the IC50 is under 10 µM.
As for `O=C(O)c1cccc(Cl)c1-c1cc(-c2cccc(NC(=O)C(Cl)Cl)c2)on1` [Compound 687], the IC50 is over 10 µM.
Still for that read-out and setting: the value for `COc1ccc(C(=O)N2CCN(c3cccc(Cl)c3-c3cc(-c4cccc(NC(=O)C(Cl)Cl)c4)on3)CC2)cc1` [Compound 664] was under 10 µM; that for `O=C(Nc1cccc(-c2cc(-c3c(Cl)cccc3N3CCN(Cc4ccccc4)CC3)no2)c1)C(Cl)Cl` [Compound 549] was under 10 µM; that for `N#Cc1cccc(F)c1-c1cc(-c2cccc(NC(=O)C(Cl)Cl)c2)on1` [Compound 613] was under 10 µM.
With `O=C(Nc1ccc(S(=O)(=O)NN2CCOCC2)c(-c2cc(-c3c(Cl)cccc3Cl)no2)c1)C(Cl)Cl` [Compound 107, 2,2-Dichloro-N-[3-[3-(2,6-dichlorophenyl)-5-isoxazolyl]4-(N-morpholinosulfamoyl)-phenyl]Acetamide], the IC50 (Hepatitis C virus) is under 10 µM.
`O=C(Nc1cccc(-c2cc(-c3c(Cl)cccc3OC3CCNC3)no2)c1)C(Cl)Cl` (stereo not drawn) [Compound 593]: the IC50 was under 10 µM.
Still for that read-out and setting: the value for `O=C(Nc1cccc(-c2cc(-c3c(Cl)cccc3N3CCN(C(=O)c4ccc(F)cc4)CC3)no2)c1)C(Cl)Cl` [Compound 662] was under 10 µM; that for `O=C(Nc1cccc(-c2cc(-c3c(Cl)cccc3N3CCN(C(=O)c4c[nH]cn4)CC3)no2)c1)C(Cl)Cl` [Compound 539] was under 10 µM.
Regarding `CC(C)C(=O)N1CCN(c2cccc(Cl)c2-c2cc(-c3cccc(NC(=O)C(Cl)Cl)c3)on2)CC1` [Compound 644], the IC50 was under 10 µM.
Same read-out and setting: the value for `CN(C(=O)C(Cl)Cl)c1cccc(-c2cc(-c3c(Cl)cccc3N=[N+]=[N-])no2)c1` [Compound 563] was under 10 µM.
Still for that read-out and setting: the figure for `CC(=O)N1CCC(COc2cccc(Cl)c2-c2cc(-c3cccc(NC(=O)C(Cl)Cl)c3)on2)CC1` [Compound 634] is under 10 µM.
`COC(=O)C1CC(Oc2cccc(Cl)c2-c2cc(-c3cccc(NC(=O)C(Cl)Cl)c3)on2)CN1` (stereo not drawn) [Compound 591]: the IC50 is under 10 µM.
On the same count and under the same terms, the value for `O=C(Nc1cccc(-c2cc(-c3c(Cl)cccc3N3CCCCC3)no2)c1)C(Cl)Cl` [Compound 503] was under 10 µM; that for `CCNC(=O)Oc1cccc(Cl)c1-c1cc(-c2cccc(NC(=O)C(Cl)Cl)c2)on1` [Compound 600] was under 10 µM.
`CN(C)C(=O)N1CCN(c2cccc(Cl)c2-c2cc(-c3cccc(NC(=O)C(Cl)Cl)c3)on2)CC1` [Compound 531]: the IC50 is under 10 µM.
